This note sets out measurements from PubChem BioAssay AID504367 (Southern Research Specialized Biocontainment Screening …, 2011).

Calls of active or inactive are those of the source.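 How the source made its calls: active means fusion inhibition of 50% or more at any tested concentration; inactive means the rest.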

The assay has as its system HeLa-CD4-LTR-beta-gal/HL2/3 cell fusion, beta-gal luminescence. Kind of assay: CXCR4-tropic HIV-1 entry blockers, cell-cell fusion – HeLa-CD4-LTR-beta-gal/HL2/3 cells, beta-gal luminescence, dose response (AID 504367).
For `Cc1c2c(=O)n(-c3nc4ccccc4s3)nc-2cc(O)n1C1CC1`, the IC50 is 60.4 µM. In the case of `O=C(O)CCCN1C(=O)/C(=C/c2ccc(-c3cccc(C(F)(F)F)c3)o2)SC1=S` it was > 100 µM (inactive). Turning to `COc1ccc(-c2ccc(/C=C3\SC(=S)N(CCCC(=O)O)C3=O)o2)cc1`, the 50% inhibitory concentration (IC50) was 1.66 µM. In the case of `CS(=O)(=O)C1=NSC2=NC(=O)/C(=C\c3cccn3-c3cccc(F)c3)C(=N)N21` it was 62.7 µM; in that of `O=C(O)CCCN1C(=O)/C(=C/c2ccc(-c3ccc(Cl)c(Cl)c3)o2)SC1=S`, 2.1 µM. For `CCOC(=O)C1=C(C)N=c2s/c(=C\c3ccc(OCC(=O)O)cc3)c(=O)n2C1c1ccc(Cl)cc1` (stereo not drawn) the value was 50 µM; for `CCOC(=O)C1=C(C)N=c2sc(=Cc3ccc(OCC(=O)O)cc3)c(=O)n2C1c1ccccc1` (stereo not drawn), > 100 µM (inactive); for `Cc1ccc(-c2ccc(/C=C3\SC(=S)N(CCCC(=O)O)C3=O)o2)cc1`, 4.6 µM. In the case of `CCOC(=O)C1=C(C)N=c2sc(=Cc3ccc(OCC(=O)O)cc3)c(=O)n2C1c1ccccc1OC` (stereo not drawn) it was > 100 µM (inactive); in that of `COc1ccc(Cn2c(O)cc3nn(-c4nc5ccccc5s4)c(=O)c-3c2C)cc1`, 49.2 µM; in that of `O=C(O)c1ccc([C@@H]2Nc3ccc(S(=O)(=O)Nc4cccc5ccccc45)cc3[C@@H]3C=CC[C@@H]32)cc1`, 39.4 µM. For the compound `O=C(O)CCC(C(=O)O)N1C(=O)/C(=C\c2ccco2)SC1=S` (stereo not drawn), the IC50 is > 100 µM (inactive). As to `Cc1ccc(-n2cccc2/C=C2/C(=N)N3C(=NC2=O)SN=C3S(C)(=O)=O)cc1`, the IC50 was 39.9 µM.

For the compound `Cc1c2c(=O)n(-c3nc4ccccc4s3)nc-2cc(O)n1Cc1ccncc1`, the IC50 is > 100 µM (inactive).

Turning to `Cc1c2c(=O)n(-c3nc4ccccc4s3)nc-2cc(O)n1Cc1ccccc1Cl`, the IC50 was 29.5 µM. With `CCc1ccc(-n2cccc2/C=C2/C(=N)N3C(=NC2=O)SN=C3S(C)(=O)=O)cc1`, the IC50 was 46 µM. Regarding `O=C(O)c1ccc(C[n+]2c(-c3ccccc3)csc2Nc2ccccc2)cc1`, the IC50 was > 100 µM (inactive).

For the compound `Cc1c2c(=O)n(-c3nc4ccccc4s3)nc-2cc(O)n1CCc1cccs1`, the IC50 is > 100 µM (inactive). In the case of `CS(=O)(=O)C1=NSC2=NC(=O)/C(=C\c3cccn3-c3ccc(F)cc3)C(=N)N21` it was 58.1 µM; in that of `CS(=O)(=O)C1=NSC2=NC(=O)/C(=C\c3cccn3-c3ccc(Cl)cc3)C(=N)N21`, 67.7 µM. As for `CCOC(=O)C1=C(C)N=c2s/c(=C\c3ccc(OCC(=O)O)cc3)c(=O)n2C1c1ccc(OC)c(OCC)c1` (stereo not drawn), the IC50 was 27.7 µM.

Turning to `CC1=C(C(=O)OC(C)C)C(c2ccc(Cl)cc2)n2c(s/c(=C\c3ccc(OCC(=O)O)cc3)c2=O)=N1` (stereo not drawn), the 50% inhibitory concentration (IC50) was 48.4 µM.

`O=C(O)c1ccc(C[n+]2c(-c3ccc([N+](=O)[O-])cc3)csc2Nc2ccccc2)cc1`: the IC50 is > 100 µM (inactive). For `CS(=O)(=O)C1=NSC2=NC(=O)/C(=C\c3cccn3-c3ccc(Br)cc3)C(=N)N21` the value was 25.2 µM; for `CCOC(=O)C1=C(C)N=c2sc(=Cc3ccc(OCC(=O)O)cc3)c(=O)n2C1c1ccc(F)cc1` (stereo not drawn), 77.1 µM. In the case of `CCOC(=O)C1=C(c2ccccc2)N=c2s/c(=C\c3ccc(OCC(=O)O)cc3)c(=O)n2C1c1cccc(OC)c1` (stereo not drawn) it was 23.3 µM. As to `CS(=O)(=O)C1=NSC2=NC(=O)/C(=C\c3cccn3-c3cc(Cl)cc(Cl)c3)C(=N)N21`, the IC50 was > 100 µM (inactive). In the case of `CS(=O)(=O)C1=NSC2=NC(=O)/C(=C\c3cccn3-c3cccc(C(F)(F)F)c3)C(=N)N21`, the IC50 is > 100 µM (inactive). In the case of `O=C(O)CCCN1C(=O)/C(=C\c2ccc(-c3ccc(F)cc3)o2)SC1=S` it was 3.86 µM; in that of `COc1cccc(C2C(C(=O)Nc3ccccc3)=C(C)N=c3sc(=Cc4ccc(OCC(=O)O)cc4)c(=O)n32)c1` (stereo not drawn), > 100 µM (inactive). In the case of `Cc1ccc(-n2cccc2/C=C2/C(=N)N3C(=NC2=O)SN=C3S(C)(=O)=O)cc1C` it was 21.4 µM; in that of `Cc1c2c(=O)n(-c3nc4ccccc4s3)nc-2cc(O)n1CCC(C)C`, 40 µM; in that of `CS(=O)(=O)C1=NSC2=NC(=O)/C(=C\c3cccn3-c3cccc(Cl)c3)C(=N)N21`, 32.1 µM. In the case of `Nc1sc2ccccc2[n+]1Cc1ccc(C(=O)O)cc1` it was > 100 µM (inactive); in that of `CCOC(=O)C1=C(C)N=c2sc(=Cc3ccc(OCC(=O)O)cc3)c(=O)n2C1c1ccc(OC)cc1OC` (stereo not drawn), > 100 µM (inactive); in that of `Cc1c2c(=O)n(-c3nc4ccccc4s3)nc-2cc(O)n1Cc1ccc(F)cc1`, 55.3 µM. `CCc1ccc(-c2ccc(/C=C3\SC(=S)N(CCCC(=O)O)C3=O)o2)cc1`: the IC50 was 2.47 µM. For the compound `COc1ccccc1Cn1c(O)cc2nn(-c3nc4ccccc4s3)c(=O)c-2c1C`, the half-maximal inhibitory concentration (IC50) was 42.2 µM. For `COc1cccc(-n2cccc2/C=C2/C(=N)N3C(=NC2=O)SN=C3S(C)(=O)=O)c1` the value was > 100 µM (inactive). For `CS(=O)(=O)C1=NSC2=NC(=O)/C(=C\c3cccn3-c3ccc(Cl)c(Cl)c3)C(=N)N21` the value was 44.5 µM. With `COc1ccccc1NS(=O)(=O)c1ccc2c(c1)C1C=CCC1C(c1ccc(C(=O)O)cc1)N2` (stereo not drawn), the concentration for half-maximal inhibition (IC50) was 18.4 µM. As to `Cc1c2c(=O)n(-c3nc4ccccc4s3)nc-2cc(O)n1CCc1ccc(O)cc1`, the IC50 was 43.6 µM.

In the case of `O=C(O)CCCN1C(=O)/C(=C/c2cc3ccccc3o2)SC1=S`, the IC50 was > 100 µM (inactive). Consider `Cc1c2c(=O)n(-c3nc4ccccc4s3)nc-2cc(O)n1Cc1cccnc1`, for which the IC50 was > 100 µM (inactive). For `COc1ccc(CCn2c(O)cc3nn(-c4nc5ccccc5s4)c(=O)c-3c2C)cc1` the value was 35.9 µM; for `CCOC(=O)C1=C(C)N=c2sc(=Cc3ccc(OCC(=O)O)cc3)c(=O)n2C1c1cc(OC)c(OC)c(OC)c1` (stereo not drawn), > 100 µM (inactive). In the case of `O=C(O)CCCN1C(=O)/C(=C\c2ccc(-c3ccc(Br)cc3)o2)SC1=S` it was 0.47 µM. In the case of `CCOc1ccc(-n2cccc2/C=C2/C(=N)N3C(=NC2=O)SN=C3S(C)(=O)=O)cc1` it was 99.9 µM. Take `O=C(O)CCCN1C(=O)/C(=C\c2ccc(-c3cccc(Cl)c3)o2)SC1=S`: the IC50 is 31.8 µM. For `O=C(O)c1ccc(C2Nc3ccc(S(=O)(=O)Nc4cc(Cl)ccc4Cl)cc3C3C=CCC32)cc1` (stereo not drawn), the 50% inhibitory concentration (IC50) was 36.8 µM. For `Cc1c2c(=O)n(-c3nc4ccccc4s3)nc-2cc(O)n1Cc1cccs1` the value was 50.1 µM; for `O=C(O)CCCN1C(=O)/C(=C\c2ccc(-c3ccc(Cl)cc3)o2)SC1=S`, 25.2 µM; for `COc1ccc(-n2cccc2/C=C2/C(=N)N3C(=NC2=O)SN=C3S(C)(=O)=O)cc1Cl`, > 100 µM (inactive).
